Test results published in patent publication US11345681B1, “Inhibitors of fibroblast growth factor receptor kinases” (Kinnate Biopharma Inc., priority 2020, dated 2022).

Target: Wild type FGFR2 (Homo sapiens (Human), UniProt P21802)
Assay: FGFR2 kinase assay (fluorescence-based microfluidic mobility shift assay)
Type: biochemical
Conditions: wild type FGFR2 0.06 nM, 100 μM ATP, 80 minutes at room temperature; class symbols

Wild type FGFR2, sequence (P21802 22-821): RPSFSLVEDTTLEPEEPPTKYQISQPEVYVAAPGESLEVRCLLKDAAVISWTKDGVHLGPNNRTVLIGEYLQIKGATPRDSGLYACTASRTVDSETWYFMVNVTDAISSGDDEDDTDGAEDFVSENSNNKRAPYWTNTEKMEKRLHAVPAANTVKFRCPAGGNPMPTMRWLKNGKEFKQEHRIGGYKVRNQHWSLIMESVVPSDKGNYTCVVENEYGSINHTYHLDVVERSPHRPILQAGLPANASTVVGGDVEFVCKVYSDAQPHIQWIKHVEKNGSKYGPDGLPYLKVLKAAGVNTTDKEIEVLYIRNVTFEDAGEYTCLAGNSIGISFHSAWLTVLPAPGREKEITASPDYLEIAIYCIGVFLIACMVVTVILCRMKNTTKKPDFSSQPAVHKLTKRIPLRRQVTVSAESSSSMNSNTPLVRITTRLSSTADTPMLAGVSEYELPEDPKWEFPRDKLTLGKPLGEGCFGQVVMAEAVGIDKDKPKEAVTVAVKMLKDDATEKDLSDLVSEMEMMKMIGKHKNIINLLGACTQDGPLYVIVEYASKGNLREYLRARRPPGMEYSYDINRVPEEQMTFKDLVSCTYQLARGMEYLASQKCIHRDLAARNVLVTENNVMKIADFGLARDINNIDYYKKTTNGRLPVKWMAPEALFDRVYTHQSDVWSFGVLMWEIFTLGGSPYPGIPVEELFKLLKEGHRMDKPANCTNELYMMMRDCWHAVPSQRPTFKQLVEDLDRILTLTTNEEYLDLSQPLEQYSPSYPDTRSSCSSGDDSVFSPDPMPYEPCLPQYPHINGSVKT

| Structure (SMILES) | IC50 [nM] |
| --- | --- |
| C=CC(=O)N1C[C@@H](n2nc(C#Cc3cc4nc(C)n(C5CC5)c4cc3F)c(C(N)=O)c2NC)C[C@@H]1[C@@H](C)O [Example 224, 3-[2-(1-Cyclopropyl-6-fluoro-2-methyl-1,3-benzodiazol-5-yl)ethynyl]-1-[(3S,5R)-5-[(1R)-1-hydroxyethyl]-1-(prop-2-enoyl)pyrrolidin-3-yl]-5-(methylamino)pyrazole-4-carboxamide] | ≤ 100 |
| C=CC(=O)N1C[C@@H](n2nc(C#Cc3cc4nc(C)n(C5CC5)c4cc3F)c(C(N)=O)c2NC)C[C@@H]1[C@H](C)O [Example 225, 3-[2-(1-Cyclopropyl-6-fluoro-2-methyl-1,3-benzodiazol-5-yl)ethynyl]-1-[(3S,5R)-5-[(1S)-1-hydroxyethyl]-1-(prop-2-enoyl)pyrrolidin-3-yl]-5-(methylamino)pyrazole-4-carboxamide] | ≤ 100 |
| CNc1c(C(N)=O)c(C#Cc2cc3nc(C)n(C4CC4)c3cc2F)nn1[C@H]1C[C@H](COC)N(C(=O)C#CC(C)(C)O)C1 [Example 227, 3-[2-(1-Cyclopropyl-6-fluoro-2-methyl-1,3-benzodiazol-5-yl)ethynyl]-1-[(3S,5R)-1-(4-hydroxy-4-methylpent-2-ynoyl)-5-(methoxymethyl)pyrrolidin-3-yl]-5 (methylamino)pyrazole-4-carboxamide] | ≤ 100 |
| CNc1c(C(N)=O)c(C#Cc2cc3nc(C)n(C4CC4)c3cc2Cl)nn1[C@H]1C[C@H](COC)N(C(=O)C#CC(C)(C)O)C1 [Example 228, 3-[2-(6-Chloro-1-cyclopropyl-2-methyl-1,3-benzodiazol-5-yl)ethynyl]-1-[(3S,5R)-1-(4-hydroxy-4-methylpent-2-ynoyl)-5-(methoxymethyl)pyrrolidin-3-yl]-5-(methylamino)pyrazole-4-carboxamide] | ≤ 100 |
| C=CC(=O)N1C[C@@H](n2nc(C#Cc3cc4ncn(C5CCC5)c4cc3Cl)c(C(N)=O)c2NC)C[C@@H]1COC [Example 232, 3-[2-(6-chloro-1-cyclobutyl-1,3-benzodiazol-5-yl)ethynyl]-1-[(3S,5R)-5-(methoxymethyl)-1-(prop-2-enoyl)pyrrolidin-3-yl]-5-(methylamino)pyrazole-4-carboxamide] | ≤ 100 |
| C=CC(=O)N1C[C@@H](n2nc(C#Cc3cc4nc(C)n(C5CCC5)c4cc3Cl)c(C(N)=O)c2NC)C[C@@H]1COC [Example 233, 1-((3S,5R)-1-Acryloyl-5-(methoxymethyl)pyrrolidin-3-yl)-3-((6-chloro-1-cyclobutyl-2-methyl-1H-benzo[d]imidazol-5-yl)ethynyl)-5-(methylamino)-1H-pyrazole-4-carboxamide] | ≤ 100 |
| C=CC(=O)N1C[C@@H](n2nc(C#Cc3cc4ncn(C5COC5)c4cc3F)c(C(N)=O)c2NC)C[C@@H]1COC [Example 234, 3-{2-[6-Fluoro-1-(oxetan-3-yl)-1,3-benzodiazol-5-yl]ethynyl}-1-[(3S,5R)-5-(methoxymethyl)-1-(prop-2-enoyl)pyrrolidin-3-yl]-5-(methylamino)pyrazole-4-carboxamide] | ≤ 100 |
| C=CC(=O)N1C[C@@H](n2nc(C#Cc3cc4ncc(C)cc4cc3F)c(C(N)=O)c2NC)C[C@@H]1COC [Example 236, 3-[2-(6-fluoro-3-methylquinolin-7-yl)ethynyl]-1-[(3S,5R)-5-(methoxymethyl)-1-(prop-2-enoyl)pyrrolidin-3-yl]-5-(methylamino)pyrazole-4-carboxamide] | ≤ 100 |
| C=CC(=O)N1C[C@@H](n2nc(C#Cc3cc4ncn(C5CC5)c4cc3F)c(C(N)=O)c2N)C[C@@H]1[C@@H](C)O [Example 240, 5-Amino-3-[2-(1-cyclopropyl-6-fluoro-1,3-benzodiazol-5-yl)ethynyl]-1-[(3S,5R)-5-[(1R)-1-hydroxyethyl]-1-(prop-2-enoyl)pyrrolidin-3-yl]pyrazole-4-carboxamide] | ≤ 100 |
